# Reference: patent US20250064932A1, “GLYCO-ENGINEERED CAR-T CELLS” (VIB VZW, priority 2021, published 2025)
# Read-outs that look alike come from different tables or passages of the source.
# How the values were obtained:
# human CD8+ T cells = conditions: for T cell proliferation: IL-2
# Protocol: Human CD8^+ T cells were purified and incubated with human T cell-activator CD3/CD28 dynabeads for T cell expansion and activation, and this in the presence of different cytokine combinations and increasing concentrations of DMSO. In order to evaluate the effect of DMSO on the proliferation of T cells in culture, cells were labeled with Tag-it Violet™ proliferation and cell tracking dye. […] Flow cytometry analysis was performed on multiple days following start up until day 11 in culture in order to evaluate T cell activation and differentiation markers.
# (§1) For human T cell phenotyping, cells were labeled with fluorescent antibodies against human CD8, CD62L and CD45RA (BD Biosciences) and CD3, CD4, CD25, CD69, CD197 (CCR7), TIM-3 (CD366), CD152 (CTLA4) and CD279 (PD-1) (Biolegend). A Fixable dye eFluor™ 780 (eBioscience) was used to evaluate live/dead cells.
# Peripheral blood lymphocytes were prepared by a Ficoll-Paque density centrifugation as described in the instruction manual for Leucosep™ (Greiner bio-one). CD8^+ T cells were isolated by negative selection (MojoSort™ Human CD8 T cell Isolation kit, Biolegend) according to the manufacture's protocol. Cells were cultured in RPMI 1640 medium (Gibco-BRL) supplemented with L-glutamine (0.03%, Gibco), 0.4 mM sodiumpyruvate (Merck Millipore) and 50 μM β-mercapto-ethanol (Sigma Aldrich) and 10% heat-inactivated fetal calf serum (FCS), in 48 well plates (Sarstedt) and stimulated with human anti-CD3/CD28 Dynabeads (1 bead:3 cell ratio) (Thermo Fisher Scientific) for 4 days at 37° C. Prior to cell seeding, Dynabeads and bead-bound cells were removed by separation on a magnet (after transfer to an Eppendorf tube) and the supernatant containing the CD8^+ T cells was collected. Cells were washed twice with PBS before putting them in culture with different cytokine combinations: (1) recombinant human (rh) IL-2 at 50 units/mL (Life Technologies); (2) rhIL-7 at 10 ng/mL (R&D systems) and rhIL-15 at 1 ng/mL (Miltenyi). Cytokines and medium were replaced every 2-3 days. Where indicated, increasing concentrations of DMSO (Sigma) were added as given by % v/v.
# (§2) Human T cells were stained with Tag-it Violet™ Proliferation and Cell Tracking Dye (Biolegend), according to manufacturer's protocol.
# [1] = system: human lymphocytes and neutrophils; conditions: up to 1% v/v DMSO, PMA for 4 hours; cited from earlier work
# CD4+ T cell = conditions: cited from earlier work
# lymphoma cell = conditions: cited from earlier work
# [2] = DMSO treated vs untreated, day 11, 1.2% DMSO
# Description for human CD3+ T cells: A protocol for in vitro isolation of CD3^+ T cell population used herein includes stimulation of purified human CD3^+ T cells in the presence of IL-12 and culturing in the presence of either IL-2 or IL-7/-15. This cultivation method provides for CD3^+ T cells populations skewed towards a naive phenotype. […] To this end, we validated the effect of DMSO on the activation and differentiation of CD3^+ T cells in the presence of IL-12 and subsequent culturing with different cytokine combinations.
# We therefore evaluated the impact of increasing DMSO concentrations on the immunophenotype at day 14, and the impact of the highest DMSO concentration (1.2%) on the immunophenotype of CD3^+ T cell (sub)populations at day 13.
# as §1
# Leukocyte-enriched buffy coat samples were obtained from healthy donors attending the Red Cross center after informed consent and ethical committee approval (EC2019-1083). Peripheral blood lymphocytes were prepared by a Ficoll-Paque density centrifugation as described in the instruction manual for Leucosep™ (Greiner bio-one). CD3^+ T cells were isolated by negative selection (MojoSort™ Human CD3 T cell selection kit, Biolegend) according to the manufacture's protocol. Cells were cultured in IMDM+Glutamax medium (Gibco-BRL) supplemented with 10% heat-inactivated fetal calf serum (FCS) and stimulated with Immunocult™ Human CD3/CD28 T-Cell Activator (Stemcell Technologies) (25 μL/10^6 cells) for 3 days at 37° C. in the presence of 10 ng/mL IL-12 (Biolegend). Prior to cell seeding, cells were washed twice with PBS before putting them in culture with different cytokine combinations: (1) recombinant human (rh) IL-2 at 50 units/mL (Miltenyi); (2) rhIL-7 at 10 ng/mL (Miltenyi) and rhIL-15 at 10 ng/mL (Miltenyi). Cytokines and medium were replaced every 2-3 days. Cell densities were maintained between 1×10^6 and 3×10^6 cells/mL. Where indicated, increasing concentrations of DMSO (Sigma) were added as given by % v/v.
# as §2
structure (smiles),measurement,setting,value
"C[S+](C)[O-] [DMSO, Dimethyl sulfoxide]",effect on survival of the cells,human CD8+ T cells,does not have a negative effect on survival
same,survival rate,human CD8+ T cells,small increases in survival rate
same,T cell proliferation,human CD8+ T cells; 0.6% DMSO,still tolerated
same,T cell proliferation,human CD8+ T cells; 1.2% DMSO,marked decrease in T cell proliferation
same,CD8+ T cell differentiation,"human CD8+ T cells; CD8+ T cells purified from the same donor, IL-12 stimulation, IL-7 and IL-15, 1.2% DMSO, day 13",clearly skewed from naïve-like towards a TCM phenotype
same,expression level of CD25,human CD8+ T cells; [2],lower
same,expression of CD69,human CD8+ T cells; [2],higher
same,decrease in proportion of CD8+ T cells expressing TIM-3,"human CD8+ T cells; IL-2, increasing DMSO",~4%
same,proportion of cells expressing PD-1 after stimulation,"human CD8+ T cells; IL-2, increasing DMSO",seems to decrease faster by day 7
same,T cell differentiation,human CD8+ T cells; IL-7 and IL-15,preferentially differentiate towards a TCM phenotype
same,DMSO concentration with inhibitory effect on T cell proliferation,"human CD8+ T cells; IL-7 and IL-15, prolonged culture",≥ 0.6%
same,TIM-3 expression level,"human CD8+ T cells; fluorescence intensity, in the presence of DMSO",markedly reduced
same,frequency of CD25 positive cells,human CD8+ T cells; increasing DMSO (0.1%-1.2%),decreases in time and with increasing DMSO concentration
same,proportion of CD69 positive cells,human CD8+ T cells; increasing DMSO (0.1%-1.2%),increases with increasing concentrations of DMSO
same,T cell differentiation subsets,"human CD8+ T cells; increasing DMSO, most clear with IL-2, day 11",a decrease in naive and effector CD8^+ T cells in favor of an increase in memory T cells
same,"cell surface marker expression (CD25, CD69, PD-1)",human CD3+ T cells; 1.2% DMSO,cell surface marker expression is increased
same,frequency of CD25 and CD69 positive cells,"human CD3+ T cells; 1.2% DMSO, IL-7 and IL-15, day 13",increases in the presence of DMSO
same,CD3+ T cell differentiation,"human CD3+ T cells; 1.2% DMSO, day 13",skews CD3^+ T cell differentiation towards a central memory phenotype
same,proportion of cells expressing PD-1,"human CD3+ T cells; 1.2% DMSO, day 13",seems to slightly increase
same,TCM population of CD8+ T cells,"human CD3+ T cells; 1.2% DMSO, about 20% in the untreated condition",over 80%
same,"expression of activation and exhaustion markers (CD25, CD69, PD-1)",human CD3+ T cells; DMSO up to 0.6%,does not alter the expression of activation and exhaustion markers
same,CD3+ T cell survival and subset distribution,"human CD3+ T cells; human, 13 day, 1.2 % v/v",did not impact CD3^+ T cell survival nor CD4′/CD8′ subset distribution
same,CD3+ T cell survival and proliferation,"human CD3+ T cells; human, 14 day",did not impact CD3^+ T cell survival and proliferation
same,impact on CD4+ T cell differentiation,human CD3+ T cells; increasing DMSO,less pronounced
same,CD4+/CD8+ subset distribution,"human CD3+ T cells; increasing DMSO, day 14",does not have an impact on the subset distribution
same,IFN-γ and TNF-α production in the cytoplasm,[1],did not change IFN-γ and TNF-α production
same,"DMSO concentrations that suppress CD4+ T cell activation, cell growth and cytokine secretion",CD4+ T cell,0.1-1%
same,DMSO concentrations at which lymphoma cell death is prevented,lymphoma cell,1-2%
